# Measurements from ChEMBL document CHEMBL1201862, “PubChem BioAssay data set” (2004).
#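 Briefly, cells in 96-well plates were exposed to five compound concentrations for 48 h, and endpoints were estimated by linear interpolation. The concentration for 50% growth inhibition is given as GI50.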 The source made the active and inactive calls. Cut-off read from the data, not from the text of the source: active = GI50 up to about 1.1 µM and inactive = higher.
# What was measured:
# Test in all cases: DTP human tumour cell line panel, 48 h
# A549 = test system: A549
# HL-60 = test system: HL-60
# HOP-62 = test system: HOP-62
# PC-3 = test system: PC-3
# NCI-H23 = test system: NCI-H23
# HOP-92 = test system: HOP-92
# OVCAR-4 = test system: OVCAR-4
# CAKI-1 = test system: CAKI-1
# CCRF-CEM = test system: CCRF-CEM
# SK-MEL-2 = test system: SK-MEL-2
# SF-295 = test system: SF-295
# MCF7 = test system: MCF7
# MDA-MB-231 = test system: MDA-MB-231
# SF-268 = test system: SF-268
# SNB-19 = test system: SNB-19
# KM12 = test system: KM12
# ACHN = test system: ACHN
# TK-10 = test system: TK-10
# UACC-257 = test system: UACC-257
# RXF 393 = test system: RXF 393
# M14 = test system: M14
# LOX IMVI = test system: LOX IMVI
# T47D = test system: T47D
# COLO 205 = test system: COLO 205
# K562 = test system: K562
# U-251 = test system: U-251
# UACC-62 = test system: UACC-62
# EKVX = test system: EKVX
# MDA-N = test system: MDA-N
# HCT-116 = test system: HCT-116
# IGROV-1 = test system: IGROV-1
# NCI-H226 = test system: NCI-H226
# MOLT-4 = test system: MOLT-4
# NCI-H460 = test system: NCI-H460
# HCT-15 = test system: HCT-15
# A498 = test system: A498
# SF-539 = test system: SF-539
# RPMI-8226 = test system: RPMI-8226
# HCC 2998 = test system: HCC 2998
# SN12C = test system: SN12C
# SK-MEL-28 = test system: SK-MEL-28
# Malme-3M = test system: Malme-3M
# Hs-578T = test system: Hs-578T
# DU-145 = test system: DU-145
# MDA-MB-435 = test system: MDA-MB-435
# OVCAR-3 = test system: OVCAR-3
# BT-549 = test system: BT-549
# OVCAR-5 = test system: OVCAR-5
# 786-0 = test system: 786-0
# SK-OV-3 = test system: SK-OV-3
# UO-31 = test system: UO-31
# SR = test system: SR
# SNB-75 = test system: SNB-75
# SK-MEL-5 = test system: SK-MEL-5
# NCI-H522 = test system: NCI-H522
# OVCAR-8 = test system: OVCAR-8
smiles,measurement,setting,value
COc1c(CCl)cc(-c2cc(=O)c3ccccc3s2)cc1CCl,GI50,A549,37.8 µM (inactive)
same,GI50,HL-60,2.59 µM (inactive)
same,GI50,HOP-62,10.6 µM (inactive)
same,GI50,PC-3,> 100 µM (inactive)
same,GI50,NCI-H23,18.9 µM (inactive)
same,GI50,HOP-92,0.0449 µM (active)
same,GI50,OVCAR-4,3.58 µM (inactive)
same,GI50,CAKI-1,7.62 µM (inactive)
same,GI50,CCRF-CEM,2.24 µM (inactive)
same,GI50,SK-MEL-2,10.1 µM (inactive)
same,GI50,SF-295,11.9 µM (inactive)
same,GI50,MCF7,1.91 µM (inactive)
same,GI50,MDA-MB-231,2.76 µM (inactive)
same,GI50,SF-268,9.23 µM (inactive)
same,GI50,SNB-19,29.3 µM (inactive)
same,GI50,KM12,3.33 µM (inactive)
same,GI50,ACHN,45.2 µM (inactive)
same,GI50,TK-10,26.9 µM (inactive)
same,GI50,UACC-257,> 100 µM (inactive)
same,GI50,RXF 393,1.63 µM (inactive)
same,GI50,M14,> 100 µM (inactive)
same,GI50,LOX IMVI,1.86 µM (inactive)
same,GI50,T47D,1.66 µM (inactive)
same,GI50,COLO 205,3.33 µM (inactive)
same,GI50,K562,2.68 µM (inactive)
same,GI50,U-251,18.8 µM (inactive)
same,GI50,UACC-62,4.99 µM (inactive)
same,GI50,EKVX,> 100 µM (inactive)
same,GI50,MDA-N,6.08 µM (inactive)
same,GI50,HCT-116,5.58 µM (inactive)
same,GI50,IGROV-1,2.51 µM (inactive)
same,GI50,NCI-H226,30.1 µM (inactive)
same,GI50,MOLT-4,1.91 µM (inactive)
same,GI50,NCI-H460,22.9 µM (inactive)
same,GI50,HCT-15,> 100 µM
same,GI50,A498,20.4 µM (inactive)
same,GI50,SF-539,6.55 µM (inactive)
same,GI50,RPMI-8226,3.77 µM (inactive)
same,GI50,HCC 2998,2.29 µM (inactive)
same,GI50,SN12C,> 100 µM (inactive)
same,GI50,SK-MEL-28,> 94.4 µM (inactive)
same,GI50,Malme-3M,1.5 µM (inactive)
same,GI50,Hs-578T,9.57 µM (inactive)
same,GI50,DU-145,> 100 µM (inactive)
same,GI50,MDA-MB-435,> 100 µM (inactive)
same,GI50,OVCAR-3,11.5 µM (inactive)
same,GI50,BT-549,36.6 µM (inactive)
same,GI50,OVCAR-5,> 100 µM (inactive)
same,GI50,786-0,0.65 µM (active)
same,GI50,SK-OV-3,27.3 µM (inactive)
same,GI50,UO-31,1.95 µM (inactive)
same,GI50,SR,3.18 µM (inactive)
same,GI50,SNB-75,6.78 µM (inactive)
same,GI50,SK-MEL-5,39.4 µM (inactive)
same,GI50,NCI-H522,1.99 µM (inactive)
same,GI50,OVCAR-8,15 µM (inactive)
